# Earlier results in US20230303507A1, “RIGID C[…] AS POTENT MODULATORS OF CANNABINOID RECEPTORS AND USES THEREOF” (priority 2020, published 2023).
# Molecular target: CB2 (Homo sapiens, UniProt P34972)
# Sequence (P34972 whole entry, species assumed): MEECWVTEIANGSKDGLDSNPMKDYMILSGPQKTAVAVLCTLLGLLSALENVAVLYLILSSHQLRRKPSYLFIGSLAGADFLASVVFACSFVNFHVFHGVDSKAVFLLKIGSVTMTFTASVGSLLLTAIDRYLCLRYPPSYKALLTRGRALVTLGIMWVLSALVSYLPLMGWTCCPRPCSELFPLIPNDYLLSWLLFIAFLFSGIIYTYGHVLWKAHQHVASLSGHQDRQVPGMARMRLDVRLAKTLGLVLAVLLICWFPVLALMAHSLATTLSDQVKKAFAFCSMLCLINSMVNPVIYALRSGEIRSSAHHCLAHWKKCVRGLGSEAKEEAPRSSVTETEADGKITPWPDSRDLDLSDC
row,SMILES,mode of action on CB2
1,"C=C(C)[C@@H]1CCC(C)=C[C@H]1c1c(O)cc(CCCCC)cc1O [CBD, cannabidiol]",weak inverse agonist
2,"CCCCCc1cc(O)c2c(c1)OC(C)(C)[C@@H]1CCC(C)=C[C@@H]21 [THC, delta-9-tetrahydrocannabinol]",partial agonist
